Test results from the OligoGym collection.
After the bases stand the sugars from the 5' end (letter, count) and the backbone: PS all phosphorothioate, else s phosphorothioate and o phosphodiester by linkage. Methylation of C is not given here. e = 2'-O-(2-methoxyethyl) (MOE); k = constrained ethyl (cEt); d = 2'-deoxy (DNA); m = 2'-O-methyl

Target: HSD17B13
Conditions: ASO, HepaRG

Sequence	target mRNA inhibition (1 µM) [%]	further results
ATAGAGTTGCACCGTT (sugars kkdddddddddkekek, PS)	45	
ATAGATCCTTTTTTGG (sugars k3 d10 k3, PS)	6	
ATAGCAAGCCAACAGA (sugars kkdddddddddkekek, PS)	23	
ATAGCTAAGTATACTT (sugars k3 d10 k3, PS)	0	
ATAGGAGAGTCTTTCA (sugars k3 d10 k3, PS)	77	
ATAGGCTAAAATGGTC (sugars k3 d10 k3, PS)	61	
ATAGTAATCACAAGTA (sugars k3 d10 k3, PS)	56	
ATAGTCCATGCAAAAG (sugars k3 d10 k3, PS)	43	
ATAGTTATCTTCTCAC (sugars k3 d10 k3, PS)	48	
ATATAACATGGCTGGC (sugars k3 d10 k3, PS)	29	
ATATACATCAACTCCT (sugars k3 d10 k3, PS)	43	
ATATACTAGGATTAGA (sugars k3 d10 k3, PS)	33	
ATATACTGTCCCAGCA (sugars k3 d10 k3, PS)	43	
ATATATACCTGTTGCC (sugars k3 d10 k3, PS)	28	
ATATCCAGTAGGTGTG (sugars k3 d10 k3, PS)	55	
ATATGGGATGAGGTAA (sugars k3 d10 k3, PS)	37	
ATATTCTGTGGCATGG (sugars k3 d9 k3 e1, PS)	58	
ATATTCTGTGGCATGG (sugars k3 d10 k3, PS)	69	
ATATTGTTTAGCTGAT (sugars k3 d10 k3, PS)	14	
ATCAAAATGGTGGCGA (sugars k3 d10 k3, PS)	20	
ATCAAGACATTCTAGC (sugars kkdddddddddkekek, PS)	30	
ATCATACCACATACCC (sugars k3 d10 k3, PS)	45	
ATCATCGATGGAAGAA (sugars k3 d10 k3, PS)	30	
ATCCAGTAGGTGTGTT (sugars k3 d10 k3, PS)	41	
ATCCATATTCCCTGAT (sugars k3 d10 k3, PS)	26	

Sequence	target mRNA inhibition (1 µM) [%]	further results
ATCCTACATGTAAGGT (sugars k3 d10 k3, PS)	24	
ATCGATGGAAGAAGTG (sugars k3 d10 k3, PS)	39	
ATCGGCTGGATATACT (sugars k3 d10 k3, PS)	10	
ATCTAGAATTAAGGGC (sugars k3 d10 k3, PS)	41	
ATCTAGCAACCTCTAT (sugars k3 d10 k3, PS)	12	
ATCTATCAGACTTCTT (sugars k3 d1 m1 d8 k3, PS)	34	
ATCTCTGGGACCAAGG (sugars kkdddddddddkekek, PS)	65	
ATCTTAAGGATCATTG (sugars k3 d10 k3, PS)	7	
ATCTUATAAGACTATA (sugars k3 d1 m1 d8 k3, PS)	35	
ATGACATAGACATGTG (sugars k3 d10 k3, PS)	23	
ATGATGTTCATGGCTT (sugars k3 d10 k3, PS)	72	
ATGATTGAATTCACTA (sugars k3 d10 k3, PS)	33	
ATGCAGCTATAGGTAG (sugars k3 d10 k3, PS)	41	
ATGCATAAGAGATGAG (sugars k3 d10 k3, PS)	30	
ATGCCAAGCTTTGTGT (sugars k3 d10 k3, PS)	50	
ATGCTACTTGAACAGT (sugars k3 d9 k3 e1, PS)	50	
ATGCTAGTAATTGCAT (sugars k3 d10 k3, PS)	16	
ATGGAAACATGCTTGG (sugars k3 d10 k3, PS)	48	
ATGGCTACAGATTGGA (sugars k3 d9 k3 e1, PS)	65	
ATGGCTTAATTTTCGG (sugars k3 d10 k3, PS)	33	
ATGTCCAGGTTGAGAT (sugars k3 d10 k3, PS)	55	
ATGTTCATGGCTTTGC (sugars k3 d10 k3, PS)	73	
ATGTTTATGTAAGCAC (sugars k3 d10 k3, PS)	70	
ATTAACTACTTCACTA (sugars k3 d10 k3, PS)	14	
ATTACAACCTGGTTTC (sugars k3 d10 k3, PS)	50	

Sequence	target mRNA inhibition (1 µM) [%]	further results
ATTACAGCATCAAGAC (sugars k3 d10 k3, PS)	63	
ATTATACTTTTCCGTC (sugars k3 d10 k3, PS)	75	target mRNA inhibition (0.02 µM): 12%; target mRNA inhibition (0.078 µM): 0%; target mRNA inhibition (0.313 µM): 47%; target mRNA inhibition (1.25 µM): 75%; target mRNA inhibition (5 µM): 84%
ATTATTATGTGATTGA (sugars k3 d10 k3, PS)	39	
ATTCATAAACATAGGC (sugars k3 d10 k3, PS)	36	
ATTCATAAGTAGTCTG (sugars k3 d10 k3, PS)	35	
ATTCCATCTATCAGAC (sugars k3 d10 k3, PS)	7	
ATTCTACACTAATATT (sugars k3 d10 k3, PS)	0	
ATTCTGTGGCATGGCT (sugars k3 d10 k3, PS)	69	
ATTGGAATGCTACTTG (sugars k3 d10 k3, PS)	53	
ATTGTCTAAACATCTC (sugars k3 d10 k3, PS)	84	target mRNA inhibition (0.02 µM): 18%; target mRNA inhibition (0.078 µM): 33%; target mRNA inhibition (0.313 µM): 58%; target mRNA inhibition (1.25 µM): 83%; target mRNA inhibition (5 µM): 94%
ATTTAGAAACTGCTCC (sugars k3 d10 k3, PS)	21	
ATTTAGAGAGCGATAG (sugars k3 d10 k3, PS)	14	
ATTTAGGGCAAACCTT (sugars k3 d10 k3, PS)	35	
ATTTAGTTGGTAGCTT (sugars k3 d10 k3, PS)	35	
ATTTGCTGCATTAATG (sugars k3 d10 k3, PS)	20	
ATTTTCAGATCCCGTT (sugars k3 d10 k3, PS)	67	
CAAAAGACTTTGAGAC (sugars k3 d9 k3 e1, PS)	13	
CAACGCAACAGTTTAG (sugars k3 d10 k3, PS)	52	
CAAGACAGACCAAGTA (sugars k3 d10 k3, PS)	27	
CAAGAGACACCACCAG (sugars k3 d10 k3, PS)	50	
CAAGAGGATAGTCCAT (sugars kkdddddddddkekek, PS)	22	
CAAGAGTTCTTGCAGA (sugars k3 d10 k3, PS)	17	
CAAGCTACCTCCAAAT (sugars k3 d10 k3, PS)	25	
CAAGGAAAAGCCTGAC (sugars k3 d10 k3, PS)	59	
CAATATGGGATGAGGT (sugars k3 d10 k3, PS)	62	

Sequence	target mRNA inhibition (1 µM) [%]	further results
CAATGAGATTACCCCT (sugars k3 d10 k3, PS)	16	
CAATTATGAATCTGCA (sugars k3 d10 k3, PS)	25	
CAATTTACTTTCAGCC (sugars k3 d10 k3, PS)	71	target mRNA inhibition (0.02 µM): 0%; target mRNA inhibition (0.078 µM): 18%; target mRNA inhibition (0.313 µM): 37%; target mRNA inhibition (1.25 µM): 76%; target mRNA inhibition (5 µM): 86%
CACAAGTAAGGTAAAG (sugars k3 d9 k3 e1, PS)	55	
CACAAGTAAGGTAAAG (sugars k3 d10 k3, PS)	54	
CACAGAACCAATATGC (sugars k3 d10 k3, PS)	54	
CACATATGTGAAGAGC (sugars k3 d9 k3 e1, PS)	74	target mRNA inhibition (0.02 µM): 6%; target mRNA inhibition (0.078 µM): 9%; target mRNA inhibition (0.313 µM): 39%; target mRNA inhibition (1.25 µM): 57%; target mRNA inhibition (5 µM): 78%
CACAUATGTGAAGAGC (sugars k3 d1 m1 d8 k3, PS)	65	
CACCACGATTGTTACA (sugars k3 d10 k3, PS)	36	
CACCGCGCTTATTAAT (sugars k3 d10 k3, PS)	7	
CACCGTTTTGGGCTAA (sugars k3 d1 m1 d8 k3, PS)	82	target mRNA inhibition (0.02 µM): 12%; target mRNA inhibition (0.078 µM): 32%; target mRNA inhibition (0.313 µM): 54%; target mRNA inhibition (1.25 µM): 71%; target mRNA inhibition (5 µM): 84%
CACCGTTTTGGGCTAA (sugars k3 d9 k3 e1, PS)	71	
CACCGTTTTGGGCTAA (sugars k3 d10 k3, PS)	85	target mRNA inhibition (0.02 µM): 13%; target mRNA inhibition (0.078 µM): 23%; target mRNA inhibition (0.313 µM): 53%; target mRNA inhibition (1.25 µM): 83%; target mRNA inhibition (5 µM): 94%
CACTAATTTAGTCAAC (sugars k3 d10 k3, PS)	7	
CACTGATACATACCAC (sugars k3 d10 k3, PS)	64	
CACTTTGGTATTGTTG (sugars k3 d10 k3, PS)	53	
CACTTTTGGTGGACTT (sugars k3 d10 k3, PS)	21	
CAGAAGTTTTTAAGAG (sugars k3 d10 k3, PS)	30	
CAGAGACATGAGGTTT (sugars k3 d10 k3, PS)	61	
CAGAGTTATTGTAGGG (sugars k3 d10 k3, PS)	83	target mRNA inhibition (0.02 µM): 16%; target mRNA inhibition (0.078 µM): 24%; target mRNA inhibition (0.313 µM): 51%; target mRNA inhibition (1.25 µM): 74%; target mRNA inhibition (5 µM): 93%
CAGATTGGAATGCTAC (sugars k3 d9 k3 e1, PS)	61	
CAGATTGGAATGCTAC (sugars k3 d10 k3, PS)	74	target mRNA inhibition (0.02 µM): 7%; target mRNA inhibition (0.078 µM): 12%; target mRNA inhibition (0.313 µM): 36%; target mRNA inhibition (1.25 µM): 73%; target mRNA inhibition (5 µM): 94%
